# Paper PMC7315563, “Bioactive fluorenes. Part III: 2,7-dichloro-9H-fluorene-based thiazolidinone and azetidinone analogues as anticancer and antimicrobial against multidrug resistant strains agents” (BMC Chemistry, 2020)
# Tests used:
# [1] = tested on: MDA-MB-231 human breast cancer cells; test: cell viability assay (MTT); assay type: cell-based; settings: 24 h; for viability at 1 µg/mL: read-out: Validity (%) for sample concentrations (µg/mL) 1; for viability at 10 µg/mL: read-out: Validity (%) for sample concentrations (µg/mL) 10; for viability at 31.25 µg/mL: read-out: Validity (%) for sample concentrations (µg/mL) 31.25; for viability at 62.5 µg/mL: read-out: Validity (%) for sample concentrations (µg/mL) 62.5; for viability at 125 µg/mL: read-out: Validity (%) for sample concentrations (µg/mL) 125; for viability at 250 µg/mL: read-out: Validity (%) for sample concentrations (µg/mL) 250; for viability at 500 µg/mL: read-out: Validity (%) for sample concentrations (µg/mL) 500
# Procedure, shortened: (§1)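 Seeding at 5000 cells/well in RPMI-1640 plus 10% inactivated FBS; treatment the following day with compound in fresh medium over 0–500 µg/mL; 24 h incubation; MTT viability with absorbance taken at […].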
# [2] = tested on: WI-38 human normal fibroblast cells; test: cell viability assay (MTT); assay type: cell-based; settings: 24 h; for viability at 31.25 µg/mL: read-out: Validity (%) for sample concentrations (µg/mL) 31.25; for viability at 62.5 µg/mL: 62.50 µg/mL, read-out: Validity (%) for sample concentrations (µg/mL) 62.50; for viability at 125 µg/mL: read-out: Validity (%) for sample concentrations (µg/mL) 125; for viability at 250 µg/mL: read-out: Validity (%) for sample concentrations (µg/mL) 250; for viability at 500 µg/mL: read-out: Validity (%) for sample concentrations (µg/mL) 500
# Procedure, shortened: as §1
# [3] = tested on: Staphylococcus aureus (S. aureus), multidrug resistant clinical isolate; test: agar well diffusion assay; assay type: cell-based; settings: Staphylococcus aureus; S. aureus; 500 µg/mL of tested compound; 24 h
# Procedure, shortened: (§2)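 Multidrug-resistant clinical isolates swabbed on Mueller–Hinton agar at about 1–5 × 10^5 CFU/mL; 0.5 cm wells received 50 μL compound at 500 μg/mL in 1% DMSO. Incubation 24 h, 37 °C for bacteria and C. albicans, 25 °C for Aspergillus; inhibition zone diameter measured in mm.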
# [4] = tested on: S. aureus; test: MIC by broth microdilution method (resazurin end point); assay type: cell-based; settings: Staphylococcus aureus; S. aureus; 24 h at 37 °C; read-out: MIC
# Experimental: (§3) Determination of Minimum inhibitory concentrations (MIC) of flourene derivatives was done using broth microdilution method. The procedure involved preparation of twofold dilutions of the fluorene derivatives ranging from (500–7.8 μg/mL) in sterile Mueller–Hinton broth inside the wells of 96-well microplate (Sarstedt, Germany). The inoculums of test strains prepared from fresh overnight cultures were adjusted to 0.5 McFarland standards, which equals to 1–2 × 10^8 CFU/mL for bacteria, the procedure was done according to CLSI 2012 [42]. […] For this assay the positive control agents were vancomycin (range: 0.7–50 μg/mL), gentamicin (range: 0.15–10 μg/mL) and the negative control was 1% DMSO.
# (§4) For proper determination of the MIC end point resazurin dye has been used. A stock solution of resazurin sodium salt powder (Titan Biotech) was prepared at 0.02% (wt/vol) in distilled water, sterilized by filtration through a […] filter into a sterile light protected container then stored protected from light at 4 °C for up to 1 week, or at − […] for long term use, then 10–15% resazurin solution of the total volume in wells was added to each well and incubation for 1–4 h at 37 °C was done. A change in color from blue to pink indicates the growth of bacteria, and MIC was defined as the lowest concentration of the drug that prevented this change in color.
# [5] = tested on: A549 human lung cancer cells; test: cell viability assay (MTT); assay type: cell-based; settings: 24 h; for viability at 1 µg/mL: read-out: Validity (%) for sample concentrations (µg/mL) 1; for viability at 10 µg/mL: read-out: Validity (%) for sample concentrations (µg/mL) 10; for viability at 31.25 µg/mL: read-out: Validity (%) for sample concentrations (µg/mL) 31.25; for viability at 62.5 µg/mL: 62.50 µg/mL, read-out: Validity (%) for sample concentrations (µg/mL) 62.50; for viability at 125 µg/mL: read-out: Validity (%) for sample concentrations (µg/mL) 125; for viability at 250 µg/mL: read-out: Validity (%) for sample concentrations (µg/mL) 250; for viability at 500 µg/mL: read-out: Validity (%) for sample concentrations (µg/mL) 500; for viability at 1000 µg/mL: read-out: Validity (%) for sample concentrations (µg/mL) 1000
# [6] = tested on: Escherichia coli (E. coli), multidrug resistant clinical isolate; test: agar well diffusion assay; assay type: cell-based; settings: 24 h, 500 µg/mL of tested compound
# Procedure, shortened: as §2
# [7] = tested on: Pseudomonas aeruginosa (P. aeruginosa), multidrug resistant clinical isolate; test: agar well diffusion assay; assay type: cell-based; settings: 24 h, 500 µg/mL of tested compound
# Procedure, shortened: as §2
# [8] = tested on: P. aeruginosa; test: MIC by broth microdilution method (resazurin end point); assay type: cell-based; settings: Pseudomonas aeruginosa, 24 h at 37 °C
# Experimental: as §3, §4
# [9] = tested on: E. coli; test: as above; assay type: cell-based; settings: Escherichia coli, 24 h at 37 °C
# Experimental: as §3, §4
# [10] = tested on: Acinetobacter baumannii (A. baumannii), multidrug resistant clinical isolate; test: agar well diffusion assay; assay type: cell-based; settings: 500 µg/mL of tested compound, 24 h
# Procedure, shortened: as §2
# [11] = tested on: methicillin-resistant Staphylococcus aureus (MRSA); test: agar well diffusion assay; assay type: cell-based; settings: Staphylococcus aureus, 500 µg/mL of tested compound, 24 h
# Procedure, shortened: as §2
# [12] = tested on: Klebsiella pneumoniae (K. pneumoniae), multidrug resistant clinical isolate; test: agar well diffusion assay; assay type: cell-based; settings: 24 h, 500 µg/mL of tested compound
# Procedure, shortened: as §2
IC50 [1] [µg/mL],melting point [°C],SMILES,viability at 1 µg/mL [1] [%],viability at 10 µg/mL [1] [%],viability at 31.25 µg/mL [1] [%],viability at 62.5 µg/mL [1] [%],viability at 125 µg/mL [1] [%],viability at 250 µg/mL [1] [%],viability at 500 µg/mL [1] [%],viability at 31.25 µg/mL [2] [%],viability at 62.5 µg/mL [2] [%],viability at 125 µg/mL [2] [%],viability at 250 µg/mL [2] [%],viability at 500 µg/mL [2] [%],IC50 [2] [µg/mL],zone of inhibition at 500 µg/mL [3] [mm],viability at 1 µg/mL [5] [%],viability at 10 µg/mL [5] [%],viability at 31.25 µg/mL [5] [%],viability at 62.5 µg/mL [5] [%],further results
> 500,85 to 87,"COc1cc(C2SCC(=O)N2c2nc(-c3cc(Cl)cc4c3-c3ccc(Cl)cc3C4)cs2)ccc1O (centres unmarked) [5h, 3-(4-(2,7-Dichloro-9H-fluoren-4-yl)thiazol-2-yl)-2-(4-hydroxy-3-methoxyphenyl)thiazolidin-4-one]",90.9,82.8,79.3,76.8,71.7,61.7,56.7,95,81.7,78.7,72.8,66.2,> 500,11,92.9,91.4,90.3,88.7,MIC [4]: 62.5 µg/mL; viability at 125 µg/mL [5]: 85.7%; viability at 250 µg/mL [5]: 82.7%; viability at 500 µg/mL [5]: 77.2%; viability at 1000 µg/mL [5]: 68%; IC50 [5]: 1610 µg/mL
435,139 to 141,"O=C1CSC(c2ccco2)N1c1nc(-c2cc(Cl)cc3c2-c2ccc(Cl)cc2C3)cs1 (centres unmarked) [5j, 3-(4-(2,7-Dichloro-9H-fluoren-4-yl)thiazol-2-yl)-2-(furan-2-yl)thiazolidin-4-one]",94.4,74.8,67,61.4,60.2,57.2,49.3,84.2,66.1,61.5,39.1,38.5,196,6,92.9,84.6,83.6,82.5,zone of inhibition at 500 µg/mL [6]: 10 mm; zone of inhibition at 500 µg/mL [7]: 8 mm; MIC [8]: 62.5 µg/mL; MIC [9]: 62.5 µg/mL; viability at 125 µg/mL [5]: 81.6%; viability at 250 µg/mL [5]: 77.5%; viability at 500 µg/mL [5]: 71.4%; viability at 1000 µg/mL [5]: 52.5%; IC50 [5]: 1050 µg/mL
215,110 to 111,"CN(C)c1ccc(C2C(Cl)C(=O)N2c2nc(-c3cc(Cl)cc4c3-c3ccc(Cl)cc3C4)cs2)cc1 (centres unmarked) [6e, 3-Chloro-1-(4-(2,7-dichloro-9H-fluoren-4-yl)thiazol-2-yl)-4-(4-(dimethylamino)phenyl)-azetidin-2-one]",98.2,90.2,89.9,85.2,69.2,41.9,39.4,68.8,52.5,45.6,38.6,26.8,65.4,12,95.4,90.3,87.5,81.7,MIC [4]: 62.5 µg/mL; viability at 125 µg/mL [5]: 71.1%; viability at 250 µg/mL [5]: 50.7%; viability at 500 µg/mL [5]: 33.2%; viability at 1000 µg/mL [5]: 28.8%; IC50 [5]: 276 µg/mL
188,114 to 116,"O=C1C(Cl)C(c2ccc([N+](=O)[O-])cc2)N1c1nc(-c2cc(Cl)cc3c2-c2ccc(Cl)cc2C3)cs1 (centres unmarked) [6f, 3-Chloro-1-(4-(2,7-dichloro-9H-fluoren-4-yl)thiazol-2-yl)-4-(4-nitrophenyl)azetidin-2-one]",91.8,89.6,83,72.4,59.7,37.2,28.9,49,44.8,35.6,32.3,30.4,29,10,91.3,89.8,86.2,83.2,zone of inhibition at 500 µg/mL [10]: 5 mm; viability at 125 µg/mL [5]: 67.3%; viability at 250 µg/mL [5]: 46.6%; viability at 500 µg/mL [5]: 38.6%; viability at 1000 µg/mL [5]: 25.4%; IC50 [5]: 230 µg/mL
508,95 to 98,"O=C1C(Cl)C(c2ccco2)N1c1nc(-c2cc(Cl)cc3c2-c2ccc(Cl)cc2C3)cs1 (centres unmarked) [6j, 3-Chloro-1-(4-(2,7-dichloro-9H-fluoren-4-yl)thiazol-2-yl)-4-(furan-2-yl)azetidin-2-one]",96.3,92.9,75.6,73.1,69,53.2,50.6,87.3,81.4,66.3,60.9,37.2,356,9,95.6,87.8,76.6,68.2,zone of inhibition at 500 µg/mL [10]: 6 mm; zone of inhibition at 500 µg/mL [6]: 20 mm; MIC [9]: 31.2 µg/mL; viability at 125 µg/mL [5]: 54%; viability at 250 µg/mL [5]: 31.3%; viability at 500 µg/mL [5]: 29.2%; viability at 1000 µg/mL [5]: 28.3%; IC50 [5]: 175 µg/mL
> 500,249 to 250,"O=C1C(Cl)C(c2ccncc2)N1c1nc(-c2cc(Cl)cc3c2-c2ccc(Cl)cc2C3)cs1 (centres unmarked) [6m, 3-Chloro-1-(4-(2,7-dichloro-9H-fluoren-4-yl)thiazol-2-yl)-4-(pyridin-4-yl)azetidin-2-one]",93.2,89.9,77.6,73.2,67.1,63.4,59.5,78.5,72.8,68.5,63,55.7,> 500,4,91.5,81.8,67.6,65.9,zone of inhibition at 500 µg/mL [11]: 6 mm; zone of inhibition at 500 µg/mL [6]: 27 mm; zone of inhibition at 500 µg/mL [12]: 3 mm; MIC [9]: 15.6 µg/mL; viability at 125 µg/mL [5]: 62.7%; viability at 250 µg/mL [5]: 58.7%; viability at 500 µg/mL [5]: 54.1%; viability at 1000 µg/mL [5]: 49.8%; IC50 [5]: 830 µg/mL
